Reference: US6054435A, “6-O-substituted macrolides having antibacterial activity” (priority 1999, dated 2000)
Values after ≈ are worked out from the molar mass of the structure shown.

Experiments:
Assay in all cases: in vitro antibacterial activity (MIC), agar dilution
Assay type in all cases: cell-based
Escherichia coli JUHL = conditions: organism code QQ; BHI agar, 35-37° C., 20 to 24 hours; unit assumed
Method: (§1) Representative compounds of the present invention were assayed in vitro for antibacterial activity as follows: Twelve petri dishes containing successive aqueous dilutions of the test compound mixed with 10 mL of sterilized Brain Heart Infusion (BHI) agar (Difco 0418-01-5) were prepared. Each plate was inoculated with 1:100 (or 1:10 for slow-growing strains, such as Micrococcus and Streptococcus) dilutions of up to 32 different microorganisms, using a Steers replicator block. […] In addition, a control plate, using BHI agar containing no test compound, was prepared and incubated at the beginning and end of each test.
(§2) An additional plate containing a compound having known susceptibility patterns for the organisms being tested and belonging to the same antibiotic class as the test compound was also prepared and incubated as a further control, as well as to provide test-to-test comparability.
(§3) After incubation, each plate was visually inspected. The minimum inhibitory concentration (MIC) was defined as the lowest concentration of drug yielding no growth, a slight haze, or sparsely isolated colonies on the inoculum spot as compared to the growth control.

[1] = system: Nocardia Asteroides ATCC9970; conditions: organism code VV; BHI agar, 35-37° C., 20 to 24 hours; unit assumed
Method: as §1, §2, §3

[2] = system: Staphylococcus aureus CMX 642A; conditions: organism code DD; BHI agar, 35-37° C., 20 to 24 hours; unit assumed
Method: as §1, §2, §3

[3] = system: Micrococcus luteus ATCC 4698; conditions: organism code PP; BHI agar, 35-37° C., 20 to 24 hours; unit assumed
Method: as §1, §2, §3

[4] = system: Staphylococcus aureus A-5278; conditions: organism code CC; BHI agar, 35-37° C., 20 to 24 hours; unit assumed
Method: as §1, §2, §3

Candida albicans CCH 442 = conditions: organism code TT; BHI agar, 35-37° C., 20 to 24 hours; unit assumed
Method: as §1, §2, §3

Escherichia coli SS = conditions: organism code RR; BHI agar, 35-37° C., 20 to 24 hours; unit assumed
Method: as §1, §2, §3

[5] = system: Streptococcus pyogenes EES61; conditions: organism code LL; BHI agar, 35-37° C., 20 to 24 hours; unit assumed
Method: as §1, §2, §3

[6] = system: Staphylococcus aureus A5177; conditions: organism code BB; BHI agar, 35-37° C., 20 to 24 hours; unit assumed
Method: as §1, §2, §3

[7] = system: Staphylococcus epidermidis 3519; conditions: organism code HH; BHI agar, 35-37° C., 20 to 24 hours; unit assumed
Method: as §1, §2, §3

[8] = system: Streptococcus bovis A-5169; conditions: organism code JJ; BHI agar, 35-37° C., 20 to 24 hours; unit assumed
Method: as §1, §2, §3

[9] = system: Staphylococcus aureus ATCC 6538P; conditions: organism code AA; BHI agar, 35-37° C., 20 to 24 hours; unit assumed
Method: as §1, §2, §3

[10] = system: Streptococcus pyogenes PIU 2548; conditions: organism code NN; BHI agar, 35-37° C., 20 to 24 hours; unit assumed
Method: as §1, §2, §3

[11] = system: Streptococcus agalactiae CMX 508; conditions: organism code KK; BHI agar, 35-37° C., 20 to 24 hours; unit assumed
Method: as §1, §2, §3

[12] = system: Streptococcus Pneumonia 5979; conditions: organism code ZZ; BHI agar, 35-37° C., 20 to 24 hours; unit assumed
Method: as §1, §2, §3

[13] = system: Streptococcus Pneumonia 5649; conditions: organism code ZZA; BHI agar, 35-37° C., 20 to 24 hours; unit assumed
Method: as §1, §2, §3

[14] = system: Enterococcus faecium ATCC 8043; conditions: organism code II; BHI agar, 35-37° C., 20 to 24 hours; unit assumed
Method: as §1, §2, §3

[15] = system: Staphylococcus aureus NCTC10649M; conditions: organism code EE; BHI agar, 35-37° C., 20 to 24 hours; unit assumed
Method: as §1, §2, §3

[16] = system: Streptococcus pyogenes 930; conditions: organism code MM; BHI agar, 35-37° C., 20 to 24 hours; unit assumed
Method: as §1, §2, §3

[17] = system: Staphylococcus aureus 1775; conditions: organism code GG; BHI agar, 35-37° C., 20 to 24 hours; unit assumed
Method: as §1, §2, §3

[18] = system: Streptococcus Pneumonia GYR 1171; conditions: organism code YY; BHI agar, 35-37° C., 20 to 24 hours; unit assumed
Method: as §1, §2, §3

[19] = system: Streptococcus Pneumonia ATCC6303; conditions: organism code XX; BHI agar, 35-37° C., 20 to 24 hours; unit assumed
Method: as §1, §2, §3

[20] = system: Haemophilis Influenzae DILL AMP R; conditions: organism code WW; BHI agar, 35-37° C., 20 to 24 hours; unit assumed
Method: as §1, §2, §3

[21] = system: Mycobacterium smegmatis ATCC 114; conditions: organism code UU; BHI agar, 35-37° C., 20 to 24 hours; unit assumed
Method: as §1, §2, §3

## CC[C@H]1OC(=O)[C@H](C)C(=O)[C@H](C)[C@@H](O[C@@H]2O[C@H](C)C[C@H](N(C)C)[C@H]2O)[C@](C)(OCC#Cc2ccc(-c3ccncc3)s2)C[C@@H](C)C(=O)[C@H](C)[C@H]2NC(=O)O[C@@]21C [Example 3]
Escherichia coli JUHL
  MIC: 100 µg/mL (≈ 126 µM)
[1]
  MIC: 0.01 µg/mL (≈ 0.0126 µM)
[2]
  MIC: 0.1 µg/mL (≈ 0.126 µM)
[3]
  MIC: 0.05 µg/mL (≈ 0.0628 µM)
[4]
  MIC: > 100 µg/mL
Candida albicans CCH 442
  MIC: > 100 µg/mL
Escherichia coli SS
  MIC: 0.2 µg/mL (≈ 0.251 µM)
[5]
  MIC: ≤ 0.05 µg/mL
[6]
  MIC: 0.05 µg/mL (≈ 0.0628 µM)
[7]
  MIC: > 100 µg/mL
[8]
  MIC: ≤ 0.05 µg/mL
[9]
  MIC: 0.05 µg/mL (≈ 0.0628 µM)
[10]
  MIC: 0.1 µg/mL (≈ 0.126 µM)
[11]
  MIC: ≤ 0.05 µg/mL

## CC[C@H]1OC(=O)[C@H](C)C(=O)[C@H](C)[C@@H](O[C@@H]2O[C@H](C)C[C@H](N(C)C)[C@H]2O)[C@](C)(OCC#Cc2ccc(-c3cncc(C(=O)N(C)C)c3)s2)C[C@@H](C)C(=O)[C@H](C)[C@H]2NC(=O)O[C@@]21C [Example 11]
[12]
  MIC: 128 µg/mL (≈ 148 µM)
Escherichia coli JUHL
  MIC: > 100 µg/mL
[1]
  MIC: 0.2 µg/mL (≈ 0.231 µM)
[13]
  MIC: 1 µg/mL (≈ 1.15 µM)
[3]
  MIC: 0.2 µg/mL (≈ 0.231 µM)
[14]
  MIC: 0.39 µg/mL (≈ 0.45 µM)
[4]
  MIC: > 100 µg/mL
Candida albicans CCH 442
  MIC: > 100 µg/mL
[15]
  MIC: 0.2 µg/mL (≈ 0.231 µM)
Escherichia coli SS
  MIC: 0.78 µg/mL (≈ 0.9 µM)
[16]
  MIC: > 100 µg/mL
[17]
  MIC: > 100 µg/mL
[18]
  MIC: 0.03 µg/mL (≈ 0.0346 µM)
[19]
  MIC: 0.03 µg/mL (≈ 0.0346 µM)
[20]
  MIC: 16 µg/mL (≈ 18.5 µM)
[5]
  MIC: 0.02 µg/mL (≈ 0.0231 µM)
[6]
  MIC: 0.2 µg/mL (≈ 0.231 µM)
[7]
  MIC: 0.2 µg/mL (≈ 0.231 µM)
[21]
  MIC: > 12.5 µg/mL
[8]
  MIC: 0.01 µg/mL (≈ 0.0115 µM)
[9]
  MIC: 0.1 µg/mL (≈ 0.115 µM)
[10]
  MIC: 0.39 µg/mL (≈ 0.45 µM)
[11]
  MIC: 0.05 µg/mL (≈ 0.0577 µM)

## CC[C@H]1OC(=O)[C@H](C)C(=O)[C@H](C)[C@@H](O[C@@H]2O[C@H](C)C[C@H](N(C)C)[C@H]2O)[C@](C)(OCC#Cc2ccc(-c3ccccn3)s2)C[C@@H](C)C(=O)[C@H](C)[C@H]2N(N)C(=O)O[C@]12C [Example 36]
[3]
  MIC: 0.1 µg/mL (≈ 0.123 µM)
[4]
  MIC: > 100 µg/mL
Candida albicans CCH 442
  MIC: > 100 µg/mL
[15]
  MIC: 0.1 µg/mL (≈ 0.123 µM)
Escherichia coli SS
  MIC: 0.2 µg/mL (≈ 0.247 µM)
[17]
  MIC: > 100 µg/mL
[6]
  MIC: 0.05 µg/mL (≈ 0.0617 µM)
[7]
  MIC: 0.1 µg/mL (≈ 0.123 µM)
[21]
  MIC: 1.56 µg/mL (≈ 1.92 µM)
[9]
  MIC: 0.05 µg/mL (≈ 0.0617 µM)
[10]
  MIC: 0.39 µg/mL (≈ 0.481 µM)

## CC[C@H]1OC(=O)[C@H](C)C(=O)[C@H](C)[C@@H](O[C@@H]2O[C@H](C)C[C@H](N(C)C)[C@H]2O)[C@](C)(OCC#Cc2ccc(-c3ccccn3)s2)C[C@@H](C)C(=O)[C@H](C)[C@H]2NC(=O)O[C@@]21C [Example 1]
[3]
  MIC: 0.1 µg/mL (≈ 0.126 µM)
[15]
  MIC: 0.1 µg/mL (≈ 0.126 µM)
Escherichia coli SS
  MIC: 0.1 µg/mL (≈ 0.126 µM)
[7]
  MIC: 0.1 µg/mL (≈ 0.126 µM)
[9]
  MIC: 0.05 µg/mL (≈ 0.0628 µM)
[10]
  MIC: 0.1 µg/mL (≈ 0.126 µM)

## CC[C@H]1OC(=O)[C@H](C)C(=O)[C@H](C)[C@@H](O[C@@H]2O[C@H](C)C[C@H](N(C)C)[C@H]2O)[C@](C)(OC/C=C/c2ccc(-c3ccncn3)s2)C[C@@H](C)C(=O)[C@H](C)[C@H]2NC(=O)O[C@@]21C [Example 64]
[12]
  MIC: 2 µg/mL (≈ 2.5 µM)
Escherichia coli JUHL
  MIC: 50 µg/mL (≈ 62.6 µM)
[1]
  MIC: 0.01 µg/mL (≈ 0.0125 µM)
[13]
  MIC: 0.25 µg/mL (≈ 0.313 µM)
[3]
  MIC: 0.2 µg/mL (≈ 0.25 µM)
[4]
  MIC: > 100 µg/mL
Candida albicans CCH 442
  MIC: > 100 µg/mL
[15]
  MIC: 0.05 µg/mL (≈ 0.0626 µM)
Escherichia coli SS
  MIC: 0.39 µg/mL (≈ 0.488 µM)
[16]
  MIC: 3.1 µg/mL (≈ 3.88 µM)
[17]
  MIC: > 100 µg/mL
[18]
  MIC: ≤ 0.004 µg/mL
[19]
  MIC: ≤ 0.004 µg/mL
[20]
  MIC: 2 µg/mL (≈ 2.5 µM)
[5]
  MIC: 0.01 µg/mL (≈ 0.0125 µM)
[6]
  MIC: 0.05 µg/mL (≈ 0.0626 µM)
[7]
  MIC: 0.05 µg/mL (≈ 0.0626 µM)
[21]
  MIC: 0.78 µg/mL (≈ 0.976 µM)
[8]
  MIC: ≤ 0.005 µg/mL
[9]
  MIC: 0.05 µg/mL (≈ 0.0626 µM)
[10]
  MIC: 0.1 µg/mL (≈ 0.125 µM)
[11]
  MIC: 0.02 µg/mL (≈ 0.025 µM)
